Tests used:
S1P3 = S1P3 (Homo sapiens (Human), UniProt Q99500); assay: Receptor [35S] GTPγS Binding Assay, S1P3; type: biochemical; conditions: membranes from EDG3-Gal5-bla HEK293T cells
Procedure: (§1) Receptor [^35S] GTPγS Binding Assays:
(§2) Compounds were loaded in a 384 Falcon v-bottom plate (0.5 μl/well in an 11 point, 3-fold dilution). Membranes prepared from S1P1/CHO cells or EDG3-Gal5-bla HEK293T cells (EDG3 equivalent S1P3) were added to the compound plate ([…], final protein 3 μg/well) with MULTIDROP®. [^35S]GTP (1250 Ci/mmol, Perkin Elmer) was diluted in assay buffer: 20 mM HEPES, pH7.5, 10 mM MgCl2, 150 mM NaCl, 1 mM EGTA (ethylene glycol tetraacetic acid), 1 mM DTT (Dithiothreitol), 10 μM GDP, 0.1% fatty acid free BSA, and 10 μg/ml Saponin to 0.4 nM. 40 μl of the [35S] GTP solution was added to the compound plate with a final concentration of 0.2 nM. The reaction was kept at room temperature for 45 min. At the end of incubation, all the mixtures in the compound plate were transferred to Millipore 384-well FB filter plates via the VELOCITY11 ® Vprep liquid handler. The filter plate was washed with water 4 times by using the manifold Embla plate washer and dried at 60° C. for 45 min. MicroScint 20 scintillation fluid (30 μl) was added to each well for counting on the Packard TOPCOUNT®. EC50 is defined as the agonist concentration that corresponds to 50% of the Ymax (maximal response) obtained for each individual compound tested.

S1P1 [1] = target: T1, S1P1 (Homo sapiens (Human), UniProt P21453); assay: Receptor [35S] GTPγS Binding Assay, S1P1; type: biochemical; conditions: membranes from S1P1/CHO cells
T1 sequence (P21453 whole entry): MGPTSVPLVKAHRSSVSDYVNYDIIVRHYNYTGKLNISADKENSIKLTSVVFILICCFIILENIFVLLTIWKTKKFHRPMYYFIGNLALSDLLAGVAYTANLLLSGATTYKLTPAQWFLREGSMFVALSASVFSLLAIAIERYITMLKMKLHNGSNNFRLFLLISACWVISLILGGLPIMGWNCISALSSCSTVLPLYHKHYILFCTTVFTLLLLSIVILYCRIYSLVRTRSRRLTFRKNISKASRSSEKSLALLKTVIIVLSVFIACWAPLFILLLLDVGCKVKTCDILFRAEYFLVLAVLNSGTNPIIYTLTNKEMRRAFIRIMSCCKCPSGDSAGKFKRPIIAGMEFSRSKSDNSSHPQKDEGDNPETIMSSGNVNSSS
Procedure: as §1, §2
A smaller value for GTPγS S1P1 EC50 value indicated greater activity for the compound in the GTPγS S1P1 binding assay. Thus the compounds of the present invention may be used in treating, preventing, or curing various S1P1 receptor-related conditions. The compounds have potential use in treating, preventing, or curing autoimmune and inflammatory diseases such as multiple sclerosis, rheumatoid arthritis, inflammatory bowel disease, lupus, psoriasis, or minimizing or reducing rejection of transplanted organs.

S1P1 [2] = target: T1, S1P1; assay: S1P1 Binding Assay (33P-S1P ligand competition, CHO membranes); conditions: membranes from CHO cells expressing human S1P1
Procedure: Membranes were prepared from CHO cells expressing human S1P1. Cells pellets (1×10^9 cells/pellet) were suspended in buffer containing 20 mM HEPES (4-(2-hydroxyethyl)-1-piperazineethanesulfonic acid), pH 7.5, 50 mM NaCl, 2 mM EDTA (ethylenediamine tetraacetic acid) and Protease Inhibitor cocktail (Roche), and disrupted on ice using the Polytron homogenizer. The homogenate was centrifuged at 20,000 rpm (48,000 g) and the supernatant was discarded. The membrane pellets were resuspended in buffer containing 50 mM HEPES, pH 7.5, 100 mM NaCl, 1 mM MgCl2, 2 mM EDTA and stored in aliquots at −80° C. after protein concentration determination.
Membranes (2 μg/well) and 0.03 nM final concentration of ^33P-S1P ligand (1 mCi/ml, Perkin Elmer or American Radiolabeled Chemicals) diluted in assay buffer (50 mM HEPES, pH7.4, 5 mM MgCl2, 1 mM CaCl2), 0.5% fatty acid free BSA (bovine serum albumin), 1 mM NaF) were added to the compound plates (384 Falcon v-bottom plate (0.5 μl/well in a 11 point, 3-fold dilution). Binding was performed for 45 minutes at room temperature, terminated by collecting the membranes onto 384-well Millipore FB filter plates, and radioactivity was measured by TOPCOUNT®. The competition data of the test compounds over a range of concentrations was plotted as percentage inhibition of radioligand specific binding. The IC50 is defined as the concentration of competing ligand needed to reduce specific binding by 50%.

Sequence of S1P3 (Q99500 whole entry): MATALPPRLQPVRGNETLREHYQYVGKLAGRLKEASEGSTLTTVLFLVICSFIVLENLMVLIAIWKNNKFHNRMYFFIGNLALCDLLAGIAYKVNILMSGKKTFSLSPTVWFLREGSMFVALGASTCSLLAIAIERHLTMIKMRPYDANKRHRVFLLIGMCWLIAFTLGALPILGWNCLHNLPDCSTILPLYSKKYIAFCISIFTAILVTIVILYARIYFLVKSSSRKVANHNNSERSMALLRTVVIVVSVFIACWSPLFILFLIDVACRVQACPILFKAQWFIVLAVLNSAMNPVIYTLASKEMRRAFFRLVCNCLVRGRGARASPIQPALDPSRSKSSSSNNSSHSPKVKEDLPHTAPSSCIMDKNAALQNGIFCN

Structure (SMILES) | EC50 (S1P3) | EC50 (S1P1 [1]) | IC50 (S1P1 [2])
CC/C(=N\OCCCc1ccccc1)c1ccc(C(=O)N2CCC(N)(COP(=O)(O)O)C2)cc1 (single isomer, unassigned) [Example 63, (E)-(3-amino-1-(4-(1-((3-phenylpropoxy)imino)propyl)benzoyl)pyrrolidin-3-yl) methyl dihydrogen phosphate] | > 6250 nM | 342 nM | 183 nM
CC/C(=N\OCCCc1ccccc1)c1ccc(C(=O)N2CCC(N)(COP(=O)(O)O)C2)cc1 (single isomer, unassigned) [Example 64, (E)-(3-amino-1-(4-(1-((3-phenylpropoxy)imino)propyl)benzoyl)pyrrolidin-3-yl) methyl dihydrogen phosphate] | > 6250 nM | 500 nM | 2530 nM
C/C(=N\OCc1ccc(C2CCCCC2)c(C(F)(F)F)c1)c1ccc(C(=O)N2CCCC(N)(COP(=O)(O)O)C2)cc1 (single isomer, unassigned) [Example 66, (E)-(3-amino-1-(4-(1-(((4-cyclohexyl-3-(trifluoromethyl)benzyl)oxy)imino)ethyl)benzoyl)piperidin-3-yl)methyl dihydrogen phosphate] | 9370 nM | 194 nM | 62 nM
C/C(=N\OCc1ccc(C2CCCCC2)c(C(F)(F)F)c1)c1ccc(C(=O)N2CCCC(N)(COP(=O)(O)O)C2)cc1 (single isomer, unassigned) [Example 67, (E)-(3-amino-1-(4-(1-(((4-cyclohexyl-3-(trifluoromethyl)benzyl)oxy)imino)ethyl)benzoyl)piperidin-3-yl)methyl dihydrogen phosphate] | > 18000 nM | 754 nM | 120 nM
C/C(=N\OCCCc1ccccc1)c1ccc(C(=O)N2CCCC(N)(COP(=O)(O)O)C2)cc1 (single isomer, unassigned) [Example 68, (E)-(3-amino-1-(4-(1-((3-phenylpropoxy)imino)ethyl)benzoyl)piperidin-3-yl)methyl dihydrogen phosphate] | 9370 nM | 399 nM | 362 nM
C/C(=N\OCCc1ccccc1)c1ccc(C2CC[C@](N)(COP(=O)(O)O)C2)cc1 (stereo in doubt) [Example 73, ((1R,3R)-1-amino-3-(4-((E)-1-(phenethoxyimino)ethyl)phenyl)cyclopentyl)methyl dihydrogen phosphate] | > 30000 nM | 44.4 nM | 49.6 nM
CC(=NOCC1CC1)c1ccc([C@@H]2CC[C@](N)(COP(=O)(O)O)C2)cc1 [Example 38, ((1R,3R)-1-amino-3-(4-(1-((cyclopropylmethoxy)imino)ethyl)phenyl)cyclopentyl)methyl Dihydrogen Phosphate] | > 30000 nM | > 30000 nM | 284 nM
C/C(=N\OCc1ccc(C2CCCCC2)c(C(F)(F)F)c1)c1ccc([C@@H]2CC[C@](N)(COP(=O)(O)O)C2)cc1 [Example 40, ((1R,3R)-1-amino-3-(4-((E)-1-(((4-cyclohexyl-3-(trifluoromethyl)benzyl)oxy)imino)ethyl)phenyl)cyclopentyl) methyl dihydrogen phosphate] | > 60000 nM | 38.1 nM | 28.3 nM
C/C(=N\OCCCc1ccccc1)c1ccc([C@@H]2CC[C@](N)(COP(=O)(O)O)C2)cc1 [Example 41, ((1R,3R)-1-amino-3-(4-((E)-1-((3-phenylpropoxy)imino)ethyl)phenyl)cyclopentyl) methyl dihydrogen phosphate] | 773 nM | 25.3 nM | 20 nM
CC(=NOCC1CCCCC1)c1ccc([C@@H]2CC[C@](N)(COP(=O)(O)O)C2)cc1 [Example 44] | > 60000 nM | 20.3 nM | 15.1 nM
CC(=NOCc1ccc(C(F)(F)F)cc1)c1ccc([C@@H]2CC[C@](N)(COP(=O)(O)O)C2)cc1 [Example 45, ((1R,3R)-1-amino-3-(4-(1-(((4-(trifluoromethyl)benzyl)oxy)imino)ethyl)phenyl)cyclopentyl)methyl dihydrogen phosphate] | > 60000 nM | 5.6 nM | 2.7 nM
CC(=NOCCOc1ccccc1)c1ccc([C@@H]2CC[C@](N)(COP(=O)(O)O)C2)cc1 [Example 46, ((1R,3R)-1-amino-3-(4-(1-((2-phenoxyethoxy)imino)ethyl)phenyl)cyclopentyl) methyl dihydrogen phosphate] | > 60000 nM | 11.2 nM | 5.2 nM
COc1cccc(CO/N=C(\C)c2ccc([C@@H]3CC[C@](N)(COP(=O)(O)O)C3)cc2)c1 [Example 50, ((1R,3R)-1-amino-3-(4-((E)-1-(((3-methoxybenzyl)oxy)imino)ethyl)phenyl)cyclopentyl) methyl dihydrogen phosphate] | > 60000 nM | 630 nM | 563 nM
CC(=NOCCCc1ccccc1)c1ccc([C@H]2CC[C@](N)(COP(=O)(O)O)C2)cc1 [Example 52] | > 30000 nM | 1.1 nM | 31.9 nM
C/C(=N\OCCCc1ccccc1)c1ccc(C(=O)N2CCC(N)(COP(=O)(O)O)CC2)cc1 [Example 57, (4-amino-1-(4-(1-((3-phenylpropoxy)imino)ethyl)benzoyl)piperidin-4-yl)methyl dihydrogen phosphate] | > 60000 nM | 324 nM | 1870 nM
C/C(=N\OCc1ccc(C2CCCCC2)c(C(F)(F)F)c1)c1ccc(C(=O)N2CCC(N)(COP(=O)(O)O)CC2)cc1 [Example 58, (E)-(4-amino-1-(4-(1-(((4-cyclohexyl-3-(trifluoromethyl)benzyl)oxy)imino)ethyl)benzoyl)piperidin-4-yl)methyl dihydrogen phosphate] | > 3120 nM | 60.8 nM | 10.7 nM
NC1(COP(=O)(O)O)CCN(C(=O)c2ccc(/C(=N/OCCCc3ccccc3)C(F)(F)F)cc2)C1 (stereo not drawn) [Example 65, (Z)-(3-amino-1-(4-(2,2,2-trifluoro-1-((3-phenylpropoxy)imino)ethyl)benzoyl)pyrrolidin-3-yl)methyl dihydrogen phosphate] | > 6250 nM | 626 nM | 1990 nM
C/C(=N\OCc1ccc(C2CCCCC2)c(C(F)(F)F)c1)c1ccc(S(=O)(=O)N2CCC(N)(COP(=O)(O)O)CC2)cc1 [Example 70, (E)-(4-amino-1-((4-(1-(((4-cyclohexyl-3-(trifluoromethyl)benzyl)oxy)imino)ethyl)phenyl)sulfonyl)piperidin-4-yl) methyl dihydrogen phosphate] | > 18000 nM | 406 nM | 918 nM
C/C(=N\OCCCc1ccccc1)c1ccc(S(=O)(=O)N2CCC(N)(COP(=O)(O)O)CC2)cc1 [Example 71, (E)-(4-amino-1-((4-(1-((3-phenylpropoxy)imino)ethyl)phenyl)sulfonyl)piperidin-4-yl)methyl dihydrogen phosphate] | > 18000 nM | 242 nM | 219 nM
C/C(=N\OCCc1ccccc1)c1ccc([C@@H]2CC[C@](N)(COP(=O)(O)O)C2)cc1 [Example 72, ((1R,3R)-1-amino-3-(4-((E)-1-(phenethoxyimino)ethyl)phenyl)cyclopentyl)methyl dihydrogen phosphate] | > 30000 nM | 91.5 nM | 61.6 nM

Reference: patent US11059784B2, “Oxime ether compounds” (BRISTOL-MYERS SQUIBB COMPANY, priority 2017, dated 2021)
